{
  "source": "patent US20150231090A1",
  "about": "(Hong Kong Baptist University, priority 2013, published 2015)",
  "assay": "Toxicity of Guttiferone K in vivo",
  "parameters": "species or system BALB/c male mice",
  "conditions": "1, 3, 10 mg/kg i.p. for 28 days",
  "data": [
    {"smiles": "CC(C)=CCC[C@@]1(C)[C@H](CC=C(C)C)C[C@]2(CC=C(C)C)C(=O)[C@@]1(CC=C(C)C)C(=O)C(C(=O)c1ccc(O)c(O)c1)=C2O", "note": "[Guttiferone K]", "values": [
      {"measurement": "organ size and cell morphology of target organs (brain, heart, lung, liver, spleen, kidney)", "result": "no evidence of organ size and cell morphology of target organs"}
    ]}
  ]
}
